Experimental data from ChEMBL document CHEMBL1201862, “PubChem BioAssay data set” (2004).
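Cells were grown in 96-well plates and exposed to each compound for 48 hours at five concentrations; endpoints were interpolated linearly between bracketing concentrations, or set to the highest concentration if not reached. GI50 is the concentration that inhibits growth by half.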 The source made the active and inactive calls. Cut-off read from the data, not from the text of the source: active = GI50 up to about 1.1 µM and inactive = higher.

Tests used:
Experiment in all cases: NCI tumour cell line growth inhibition, 48 h
[1] = test system: Malme-3M
[2] = test system: NCI-H226
[3] = test system: T47D
[4] = test system: HCC 2998
[5] = test system: COLO 205
[6] = test system: CCRF-CEM
[7] = test system: SNB-75
[8] = test system: SK-MEL-5
[9] = test system: KM12
[10] = test system: NCI-H522
[11] = test system: M14
[12] = test system: SF-268
[13] = test system: ACHN
[14] = test system: HOP-92
[15] = test system: BT-549
[16] = test system: MOLT-4
[17] = test system: 786-0
[18] = test system: OVCAR-3
[19] = test system: SN12C
[20] = test system: OVCAR-4
[21] = test system: TK-10
[22] = test system: EKVX
[23] = test system: RPMI-8226
[24] = test system: OVCAR-8
[25] = test system: HL-60
[26] = test system: Hs-578T
[27] = test system: SW-620
[28] = test system: UACC-62
[29] = test system: SF-539
[30] = test system: RXF 393
[31] = test system: UACC-257
[32] = test system: NCI/ADR-RES
[33] = test system: OVCAR-5
[34] = test system: SK-OV-3
[35] = test system: PC-3
[36] = test system: K562
[37] = test system: A549
[38] = test system: MDA-N
[39] = test system: MDA-MB-435
[40] = test system: SNB-19
[41] = test system: IGROV-1
[42] = test system: SK-MEL-2
[43] = test system: NCI-H23
[44] = test system: DU-145
[45] = test system: SK-MEL-28
[46] = test system: HCT-15
[47] = test system: UO-31
[48] = test system: HCT-116
[49] = test system: MCF7
[50] = test system: HT-29
[51] = test system: U-251
[52] = test system: CAKI-1
[53] = test system: SF-295
[54] = test system: LOX IMVI
[55] = test system: MDA-MB-231
[56] = test system: A498
[57] = test system: HOP-62
[58] = test system: NCI-H460

In the case of `O=C1NC(c2ccccc2)N=C2Oc3ccccc3C=C12` (stereo not drawn), the GI50 [1] is reported as 0.122 µM (active), the GI50 [2] is reported as 0.579 µM (active) and the GI50 [3] is reported as > 100 µM (inactive). For the same compound, the GI50 [4] was 0.0277 µM (active), the GI50 [5] was 0.0731 µM (active) and the GI50 [6] was 0.562 µM (active). The GI50 [7] was 0.547 µM (active), the GI50 [8] was 0.185 µM (active) and the GI50 [9] was 2.62 µM (inactive). For the same compound, the GI50 [10] was 0.622 µM (active), the GI50 [11] was 0.194 µM (active) and the GI50 [12] was 5.98 µM (inactive). The GI50 [13] was 2.87 µM (inactive), the GI50 [14] was 47.2 µM (inactive) and the GI50 [15] was 32.6 µM (inactive). The GI50 [16] was 1.69 µM (inactive), the GI50 [17] was 0.281 µM (active) and the GI50 [18] was 0.0897 µM (active). For the same compound, the GI50 [19] was 3.27 µM (inactive), the GI50 [20] was > 100 µM (inactive) and the GI50 [21] was > 63.1 µM (inactive). The GI50 [22] was 0.181 µM (active), the GI50 [23] was 19.3 µM (inactive) and the GI50 [24] was 3.47 µM (inactive). For the same compound, the GI50 [25] was 0.212 µM (active), the GI50 [26] was 0.521 µM (active) and the GI50 [27] was 0.621 µM (active). The GI50 [28] was 0.127 µM (active), the GI50 [29] was 2.6 µM (inactive) and the GI50 [30] was 0.603 µM (active). For the same compound, the GI50 [31] was 0.065 µM (active), the GI50 [32] was 0.533 µM (active) and the GI50 [33] was 1.04 µM (active). For the same compound, the GI50 [34] was 0.0424 µM (active), the GI50 [35] was 0.0753 µM (active) and the GI50 [36] was 1.28 µM (inactive). For the same compound, the GI50 [37] was 1.73 µM (inactive), the GI50 [38] was 0.0738 µM (active) and the GI50 [39] was < 0.0265 µM (active). The GI50 [40] was 4.61 µM (inactive), the GI50 [41] was 0.535 µM (active) and the GI50 [42] was 1.26 µM (inactive). The GI50 [43] was 0.151 µM (active), the GI50 [44] was 0.231 µM (active) and the GI50 [45] was 38.7 µM (inactive). The GI50 [46] was 0.153 µM, the GI50 [47] was 8.22 µM (inactive) and the GI50 [48] was 0.263 µM (active). For the same compound, the GI50 [49] was 0.359 µM (active), the GI50 [50] was 1.68 µM (inactive) and the GI50 [51] was 4.21 µM (inactive). For the same compound, the GI50 [52] was 0.0255 µM (active), the GI50 [53] was 0.444 µM (active) and the GI50 [54] was 5.12 µM (inactive). For the same compound, the GI50 [55] was 0.569 µM (active), the GI50 [56] was 1.27 µM (inactive) and the GI50 [57] was 0.543 µM (active). For the same compound, the GI50 [58] was 0.565 µM (active).
In the case of `CNc1nc(N(C)C)nc(N(C)C)n1`, the GI50 [2] is reported as 1120 µM (inactive), the GI50 [3] is reported as 578 µM (inactive) and the GI50 [11] is reported as 1210 µM (inactive). For the same compound, the GI50 [15] was 1320 µM (inactive), the GI50 [26] was 2100 µM (inactive) and the GI50 [32] was 1140 µM (inactive). The GI50 [35] was 1580 µM (inactive), the GI50 [38] was 855 µM (inactive) and the GI50 [39] was 1110 µM (inactive). For the same compound, the GI50 [44] was 2790 µM (inactive), the GI50 [49] was 771 µM (inactive) and the GI50 [55] was 955 µM (inactive).
For `O=C1N/C(=N/N=C/C(O)C(O)C(O)C(O)CO)N/C1=C\c1c[nH]c2ccccc12` (stereo not drawn), the GI50 [1] was > 100 µM (inactive), the GI50 [2] was > 100 µM (inactive) and the GI50 [3] was 97.7 µM (inactive). For the same compound, the GI50 [4] was > 100 µM (inactive), the GI50 [5] was > 100 µM (inactive) and the GI50 [6] was 39.1 µM (inactive). For the same compound, the GI50 [7] was > 100 µM (inactive), the GI50 [8] was > 100 µM (inactive) and the GI50 [9] was 52.4 µM (inactive). For the same compound, the GI50 [10] was 54.1 µM (inactive), the GI50 [11] was > 100 µM (inactive) and the GI50 [12] was > 100 µM (inactive). The GI50 [13] was > 100 µM (inactive), the GI50 [14] was > 100 µM (inactive) and the GI50 [15] was > 100 µM (inactive). For the same compound, the GI50 [16] was 93.8 µM (inactive), the GI50 [17] was > 100 µM (inactive) and the GI50 [18] was 62.8 µM (inactive). For the same compound, the GI50 [19] was > 100 µM (inactive), the GI50 [20] was > 100 µM (inactive) and the GI50 [21] was > 100 µM (inactive). For the same compound, the GI50 [22] was 34.6 µM (inactive), the GI50 [23] was 89.7 µM (inactive) and the GI50 [24] was > 100 µM (inactive). The GI50 [25] was 48.4 µM (inactive), the GI50 [26] was > 100 µM (inactive) and the GI50 [27] was > 100 µM (inactive). The GI50 [28] was > 100 µM (inactive), the GI50 [29] was > 100 µM (inactive) and the GI50 [30] was > 100 µM (inactive). For the same compound, the GI50 [31] was > 100 µM (inactive), the GI50 [32] was > 100 µM (inactive) and the GI50 [33] was > 100 µM (inactive). For the same compound, the GI50 [34] was > 100 µM (inactive), the GI50 [35] was 20.3 µM (inactive) and the GI50 [36] was 83.9 µM (inactive). For the same compound, the GI50 [37] was > 100 µM (inactive), the GI50 [38] was > 100 µM (inactive) and the GI50 [39] was > 100 µM (inactive). The GI50 [40] was 38.4 µM (inactive), the GI50 [41] was > 100 µM (inactive) and the GI50 [42] was 28.3 µM (inactive). For the same compound, the GI50 [43] was > 100 µM (inactive), the GI50 [44] was > 100 µM (inactive) and the GI50 [45] was > 100 µM (inactive). The GI50 [46] was over 100 µM, the GI50 [48] was > 100 µM (inactive) and the GI50 [49] was > 100 µM (inactive). The GI50 [50] was 57.7 µM (inactive), the GI50 [51] was 69.3 µM (inactive) and the GI50 [52] was > 100 µM (inactive). For the same compound, the GI50 [53] was > 100 µM (inactive), the GI50 [54] was > 100 µM (inactive) and the GI50 [55] was 34.2 µM (inactive). For the same compound, the GI50 [56] was 38.3 µM (inactive), the GI50 [57] was > 100 µM (inactive) and the GI50 [58] was > 100 µM (inactive).
For `O/N=N\c1nc(-c2cccnc2)nc2ccccc12`, the GI50 [2] was > 100 µM (inactive), the GI50 [3] was > 100 µM (inactive) and the GI50 [4] was 87.9 µM (inactive). For the same compound, the GI50 [5] was 75.5 µM (inactive), the GI50 [6] was > 100 µM (inactive) and the GI50 [7] was 33.3 µM (inactive). For the same compound, the GI50 [8] was > 100 µM (inactive), the GI50 [9] was > 100 µM (inactive) and the GI50 [10] was > 100 µM (inactive). The GI50 [11] was > 100 µM (inactive), the GI50 [12] was > 100 µM (inactive) and the GI50 [13] was > 100 µM (inactive). The GI50 [15] was > 100 µM (inactive), the GI50 [16] was > 100 µM (inactive) and the GI50 [17] was > 100 µM (inactive). For the same compound, the GI50 [18] was > 100 µM (inactive), the GI50 [19] was > 100 µM (inactive) and the GI50 [20] was > 100 µM (inactive). For the same compound, the GI50 [21] was > 100 µM (inactive), the GI50 [22] was > 100 µM (inactive) and the GI50 [24] was > 100 µM (inactive). For the same compound, the GI50 [25] was > 100 µM (inactive), the GI50 [26] was > 100 µM (inactive) and the GI50 [27] was > 100 µM (inactive). The GI50 [28] was > 100 µM (inactive), the GI50 [29] was > 100 µM (inactive) and the GI50 [31] was > 100 µM (inactive). For the same compound, the GI50 [32] was > 100 µM (inactive), the GI50 [33] was > 100 µM (inactive) and the GI50 [34] was > 100 µM (inactive). For the same compound, the GI50 [35] was > 100 µM (inactive), the GI50 [36] was > 100 µM (inactive) and the GI50 [37] was > 100 µM (inactive). The GI50 [38] was > 100 µM (inactive), the GI50 [40] was > 100 µM (inactive) and the GI50 [41] was > 100 µM (inactive). For the same compound, the GI50 [43] was > 100 µM (inactive), the GI50 [44] was > 100 µM (inactive) and the GI50 [45] was > 100 µM (inactive). The GI50 [46] was 96.8 µM, the GI50 [47] was 17.5 µM (inactive) and the GI50 [48] was > 100 µM (inactive). For the same compound, the GI50 [49] was > 100 µM (inactive), the GI50 [50] was 47.8 µM (inactive) and the GI50 [51] was > 100 µM (inactive). For the same compound, the GI50 [52] was > 100 µM (inactive), the GI50 [53] was > 100 µM (inactive) and the GI50 [55] was > 100 µM (inactive). For the same compound, the GI50 [56] was > 100 µM (inactive), the GI50 [57] was > 100 µM (inactive) and the GI50 [58] was > 100 µM (inactive).
